This note sets out measurements from patent publication US20260285863A1, “COMPOUNDS CAPABLE OF MODULATING GPR65” (Pathios Therapeutics Limited, priority 2023, published 2026).

pIC50: −log10 of the molar value. Some results are limits rather than exact numbers.

The test deals with T1, human recombinant GPR65 (Homo sapiens, UniProt Q8IYL9).
T1 construct: host or cells: 1321N1 human astrocytoma cells (1321N1-hrGPR65)
T1 sequence (Q8IYL9 whole entry): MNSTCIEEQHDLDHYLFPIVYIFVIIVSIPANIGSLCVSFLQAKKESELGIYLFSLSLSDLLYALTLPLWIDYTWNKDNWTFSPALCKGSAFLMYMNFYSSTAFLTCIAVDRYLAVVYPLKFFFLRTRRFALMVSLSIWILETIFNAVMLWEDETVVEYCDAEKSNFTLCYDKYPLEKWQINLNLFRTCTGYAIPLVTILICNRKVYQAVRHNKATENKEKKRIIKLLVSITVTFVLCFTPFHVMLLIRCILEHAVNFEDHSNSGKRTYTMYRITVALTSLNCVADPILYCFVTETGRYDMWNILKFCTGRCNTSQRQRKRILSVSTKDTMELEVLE
Kind of test: Human GPR65 cAMP HTRF antagonist assay. Format: cell-based. The following applies: 1321N1-hrGPR65 cells, assay pH 7.2, cAMP HTRF; read-out: hGPR65 IC50. From the text: The “Human GPR65 cyclic adenosine monophosphate (cAMP) Homogeneous Time Resolved Fluorescence (HTRF) antagonist assay”, or simply “cAMP assay”, as described in the accompanying examples, can be used to measure the potency of GPR65 modulators, which is expressed as the concentration of compound required to reduce the increase in cAMP concentration upon GPR65 activation by 50% (i.e. an IC50).
Human GPR65 Cyclic Adenosine Monophosphate (cAMP) Homogeneous Time Resolved Fluorescence (HTRF) Antagonist Assay Procedure
IC50data was obtained by the following procedure:
1321N1 human astrocytoma cells stably expressing human recombinant GPR65 (1321N1-hrGPR65 cells, EuroscreenFast) were cultured according to the vendor's instructions.
Compounds were tested for their ability to antagonise GPR65, through measuring the concentration of cytoplasmic cAMP following treatment of the cells at a pH of 7.2 to activate GPR65 signalling and addition of the compound to be tested. The extent to which the expected rise in cAMP concentration upon GPR65 activation was suppressed by the added compound is indicative of its potency. The assay was carried out according to EuroscreenFast assay Methodology as follows.
On the day of the assay, test compounds were added to 384-well, low volume, white microtiter plates by acoustic dispensing. KRH buffer (5 mM KCl, 1.25 mM MgSO4, 124 mM NaCl, 25 mM HEPES, 13.3 mM Glucose, 1.25 mM KH2PO4 and 1.45 mM CaCl2) was adjusted to pH 6.5, pH 7.6 and pH 8.4 by adding NaOH. 1321N1-hGPR65 cells were rapidly thawed and diluted in KRH, pH 7.6 prior to centrifugation at 300×g for 5 min and resuspension in assay buffer (KRH, pH 7.6, supplemented with 1 mM 3-isobutyl-1-methylxanthine (IBMX) and 200 μM ethylenediaminetetraacetic acid (EDTA)). Cells were added to assay plates at a density of 2,000 cells per well in a volume of […]. Assay plates were briefly centrifuged at 100×g and then incubated at room temperature for 30 min. Cells were stimulated by the addition of 5 μL KRH, pH 6.5, to achieve an assay pH of 7.2, while control wells received […] KRH, pH 8.4 to achieve an assay pH of 7.9. Assay plates were briefly centrifuged at 100×g and then incubated at room temperature for 30 min.
Accumulation of cAMP was detected by cAMP HTRF kit (Cisbio). d2-labeled cAMP and cryptate-labeled anti-cAMP antibody in Lysis and Detection Buffer (Cisbio) were added to assay plates, and the plates were incubated at room temperature for 1 h. HTRF measurements were performed using a Pherastar FSX instrument. Acceptor and donor emission signals were measured at 665 nm and 620 nm, respectively, and HTRF ratios were calculated as signal665 nm/signal620 nm×104. Data were normalised to high and low control values and fitted with 4-parameter logistic regression to determine hGPR65 IC50 values for the test compounds, which are shown in Table 1.
On the technique in general: TR-FRET usually uses a lanthanide donor and a delayed reading to cut background.
Regarding `O=C(Nc1cc(Cl)c(-c2ccc3nonc3c2)cn1)N1C2CCC1[C@H](F)c1c2ccnc1F` (mixture of isomers) [Compound 5, (±,9S)-N-(5-(benzo[c][1,2,5]oxadiazol-5-yl)-4-chloropyridin-2-yl)-1,9-difluoro-6,7,8,9-tetrahydro-5H-5,8-epiminocyclohepta[c]pyridine-10-carboxamide], the negative-log IC50 (pIC50) is more than 6.30. For `O=C(Nc1cc(Cl)c(C(F)(F)F)cn1)N1C2CCC1[C@H](F)c1c2ccnc1F` (mixture of isomers) [Compound 33, (±)(9S)-N-(4-chloro-5-(trifluoromethyl)pyridin-2-yl)-1,9-difluoro-6,7,8,9-tetrahydro-5H-5,8-epiminocyclohepta[c]pyridine-10-carboxamide] the value was more than 6.30; for `O=C(Nc1cc(Cl)c(C(F)(F)F)cn1)N1C2CCC1C(F)(F)c1c2ccnc1F` (racemic) [Compound 34, (±)-N-(4-chloro-5-(trifluoromethyl)pyridin-2-yl)-1,9,9-trifluoro-6,7,8,9-tetrahydro-5H-5,8-epiminocyclohepta[c]pyridine-10-carboxamide], more than 6.30; for `O=C(Nc1cc(Cl)c(Cl)cn1)N1C2CCC1[C@H](F)c1c2ccnc1F` (mixture of isomers) [Compound 35, (±)(9S)-N-(4,5-dichloropyridin-2-yl)-1,9-difluoro-6,7,8,9-tetrahydro-5H-5,8-epiminocyclohepta[c]pyridine-10-carboxamide], more than 6.30. With `O=C(Nc1cc(Cl)c(Cl)cn1)N1C2CCC1C(F)(F)c1c2ccnc1F` (racemic) [Compound 36, (±)-N-(4,5-dichloropyridin-2-yl)-1,9,9-trifluoro-6,7,8,9-tetrahydro-5H-5,8-epiminocyclohepta[c]pyridine-10-carboxamide] the figure was more than 6.30; with `O=C(Nc1cc(Cl)c(-c2ccc(OCC(F)(F)F)nc2)cc1F)N1C2CCC1C(F)(F)c1c2ccnc1F` (racemic) [Compound 70, (±)-N-(5-Chloro-2-fluoro-4-(6-(2,2,2-trifluoroethoxy)pyridin-3-yl)phenyl)-1,9,9-trifluoro-6,7,8,9-tetrahydro-5H-5,8-epiminocyclohepta[c]pyridine-10-carboxamide], more than 6.30; with `O=C(Nc1cc(Cl)c(-c2ccc(OC[C@@H]3CCOC3)nc2)cc1F)N1[C@H]2CC[C@@H]1c1c[nH]c(=O)cc1C2` (single isomer, unassigned) [Compound 47], more than 6.30. For `O=C(Nc1cc(Cl)c(-c2ccc(OC[C@H]3CCOC3)nc2)cc1F)N1[C@H]2CC[C@@H]1c1c[nH]c(=O)cc1C2` (single isomer, unassigned) [Compound 48] the value was more than 6.30; for `O=C(Nc1cc(Cl)c(-c2ccc(O[C@@H]3CCN(CC(F)(F)F)C3)nc2)cc1F)N1[C@H]2CC[C@@H]1c1c[nH]c(=O)cc1C2` (single isomer, unassigned) [Compound 77], more than 6.30.

For the molecule `O=C(Nc1cc(Cl)c(-c2ccc(O[C@H]3CCN(CC(F)(F)F)C3)nc2)cc1F)N1[C@H]2CC[C@@H]1c1c[nH]c(=O)cc1C2` (single isomer, unassigned) [Compound 78], the pIC50 was more than 6.30.

Turning to `O=C(Nc1cc(Cl)c(-c2ccc(OCC34COC(C3)C4)nc2)cc1F)N1[C@H]2CC[C@@H]1c1n[nH]c(=O)cc1C2` [Compound 1, (6S,9R)-N-(4-(6-((2-oxabicyclo[2.1.1]hexan-4-yl)methoxy)pyridin-3-yl)-5-chloro-2-fluorophenyl)-3-oxo-3,5,6,7,8,9-hexahydro-2H-6,9-epiminocyclohepta[c]pyridazine-10-carboxamide], the negative logarithm of the IC50 (pIC50) was more than 6.30. With `O=C(Nc1cc(Cl)c(-c2ccc(NCC(F)(F)F)nc2)cc1F)N1[C@H]2CC[C@@H]1c1n[nH]c(=O)cc1C2` [Compound 2, (6S,9R)-N-(5-chloro-2-fluoro-4-(6-((2,2,2-trifluoroethyl)amino)pyridin-3-yl)phenyl)-3-oxo-3,5,6,7,8,9-hexahydro-2H-6,9-epiminocyclohepta[c]pyridazine-10-carboxamide] the figure was more than 6.30; with `CN(CC(F)(F)F)c1ccc(-c2cc(F)c(NC(=O)N3[C@H]4CC[C@@H]3c3n[nH]c(=O)cc3C4)cc2Cl)cn1` [Compound 3, (6S,9R)-N-(5-chloro-2-fluoro-4-(6-(methyl(2,2,2-trifluoroethyl)amino)pyridin-3-yl)phenyl)-3-oxo-3,5,6,7,8,9-hexahydro-2H-6,9-epiminocyclohepta[c]pyridazine-10-carboxamide], more than 6.30; with `O=C(Nc1cc(Cl)c(-c2ccc(OCC(F)(F)F)nn2)cc1F)N1[C@H]2CC[C@@H]1c1n[nH]c(=O)cc1C2` [Compound 6, (6S,9R)-N-(5-chloro-2-fluoro-4-(6-(2,2,2-trifluoroethoxy)pyridazin-3-yl)phenyl)-3-oxo-3,5,6,7,8,9-hexahydro-2H-6,9-epiminocyclohepta[c]pyridazine-10-carboxamide], more than 6.30. For `O=C(NC12CC(c3ccc(OCC(F)(F)F)nc3)(C1)C2)N1[C@H]2CC[C@@H]1c1n[nH]c(=O)cc1C2` [Compound 7, (6S,9R)-3-Oxo-N-(3-(6-(2,2,2-trifluoroethoxy)pyridin-3-yl)bicyclo[1.1.1]pentan-1-yl)-3,5,6,7,8,9-hexahydro-2H-6,9-epiminocyclohepta[c]pyridazine-10-carboxamide] the value was 5.30 to 6.30.

With `CN(CC(F)(F)F)c1ccc(-c2cc(F)c(NC(=O)N3[C@H]4CC[C@@H]3c3c[nH]c(=O)cc3C4)cc2Cl)cn1` [Compound 8, (6S,9R)-N-(5-chloro-2-fluoro-4-(6-(methyl(2,2,2-trifluoroethyl)amino)pyridin-3-yl)phenyl)-3-oxo-3,5,6,7,8,9-hexahydro-2H-6,9-epiminocyclohepta[c]pyridine-10-carboxamide], the pIC50 was more than 6.30. Consider `CN(C(=O)N1[C@H]2CC[C@@H]1c1n[nH]c(=O)cc1C2)c1cc(Cl)c(-c2ccc(OCC(F)(F)F)nc2)cc1F` [Compound 9, (6S,9R)-N-(5-chloro-2-fluoro-4-(6-(2,2,2-trifluoroethoxy)pyridin-3-yl)phenyl)-N-methyl-3-oxo-3,5,6,7,8,9-hexahydro-2H-6,9-epiminocyclohepta[c]pyridazine-10-carboxamide], for which the pIC50 was 5.30 to 6.30.

Take `O=C(Nc1cc(Cl)c(-c2ccc(OC3CCCC3)nc2)cc1F)N1[C@H]2CC[C@@H]1c1c[nH]c(=O)cc1C2` [Compound 10, (6S,9R)-N-(5-chloro-4-(6-(cyclopentyloxy)pyridin-3-yl)-2-fluorophenyl)-3-oxo-3,5,6,7,8,9-hexahydro-2H-6,9-epiminocyclohepta[c]pyridine-10-carboxamide]: the pIC50 is more than 6.30. With `O=C(Nc1cc(Cl)c(-c2cnc(OCC(F)(F)F)c(F)c2)cc1F)N1[C@H]2CC[C@@H]1c1c[nH]c(=O)cc1C2` [Compound 11, (6S,9R)-N-(5-chloro-2-fluoro-4-(5-fluoro-6-(2,2,2-trifluoroethoxy)pyridin-3-yl)phenyl)-3-oxo-3,5,6,7,8,9-hexahydro-2H-6,9-epiminocyclohepta[c]pyridine-10-carboxamide] the figure was more than 6.30; with `O=C(Nc1cc(Cl)c(-c2ccc(OCC(F)(F)F)nn2)cc1F)N1[C@H]2CC[C@@H]1c1c[nH]c(=O)cc1C2` [Compound 12, (6S,9R)-N-(5-chloro-2-fluoro-4-(6-(2,2,2-trifluoroethoxy)pyridazin-3-yl)phenyl)-3-oxo-3,5,6,7,8,9-hexahydro-2H-6,9-epiminocyclohepta[c]pyridine-10-carboxamide], more than 6.30.

As a reminder, the pIC50 is the negative decadic logarithm of the IC50, by convention in mol/L.
